Data: ChEMBL document CHEMBL5724914, “Linking interpersonal differences in gut microbiota composition and drug biotransformation activity” (2024)

experiment: (§1) The drug is tested on Z-028 corresponding to mouse gut metagenome with ENA study accession number: PRJEB37062 and ENA sample accession number: ERS12561827 for biotransformation under anaerobic condition. The drug concentrations were measured over 9 timepoints collected between 0 and 24 hours of incubation by liquid-chromatography-coupled mass spectrometry (LC–MS); details: 2 µM
Also: call rule not given here.

Bacterial Biotransformation | Structure (SMILES)
Compound NOT metabolized | CN1CCC(=C2c3ccccc3CC(=O)c3sccc32)CC1.O=C(O)/C=C/C(=O)O [KETOTIFEN FUMARATE]
Compound metabolized | CC[C@H](C)C(=O)O[C@H]1CCC=C2C=C[C@H](C)[C@H](CC[C@@H]3C[C@@H](O)CC(=O)O3)[C@H]21 [MEVASTATIN]

experiment: as §1, with “WLS-052” for “Z-028”, “human” for “mouse”, “ERS12561747” for “ERS12561827”; details: 2 µM

Bacterial Biotransformation | Structure (SMILES)
Compound NOT metabolized | CN1CCC(=C2c3ccccc3CC(=O)c3sccc32)CC1.O=C(O)/C=C/C(=O)O [KETOTIFEN FUMARATE]
Compound metabolized | CC[C@H](C)C(=O)O[C@H]1CCC=C2C=C[C@H](C)[C@H](CC[C@@H]3C[C@@H](O)CC(=O)O3)[C@H]21 [MEVASTATIN]

details: human gut metagenome, 24 h, 2 µM

Bacterial Biotransformation | Structure (SMILES)
Compound metabolized | CN1CCC(=C2c3ccccc3CC(=O)c3sccc32)CC1.O=C(O)/C=C/C(=O)O [KETOTIFEN FUMARATE]
Compound metabolized | CC[C@H](C)C(=O)O[C@H]1CCC=C2C=C[C@H](C)[C@H](CC[C@@H]3C[C@@H](O)CC(=O)O3)[C@H]21 [MEVASTATIN]

details: human gut metagenome, 24 h, 2 µM; remark: another data set of the same source

Bacterial Biotransformation | Structure (SMILES)
Compound NOT metabolized | CN1CCC(=C2c3ccccc3CC(=O)c3sccc32)CC1.O=C(O)/C=C/C(=O)O [KETOTIFEN FUMARATE]
Compound NOT metabolized | CC[C@H](C)C(=O)O[C@H]1CCC=C2C=C[C@H](C)[C@H](CC[C@@H]3C[C@@H](O)CC(=O)O3)[C@H]21 [MEVASTATIN]

details: human gut metagenome, 24 h, 2 µM; remark: another data set of the same source

Bacterial Biotransformation | Structure (SMILES)
Compound NOT metabolized | CN1CCC(=C2c3ccccc3CC(=O)c3sccc32)CC1.O=C(O)/C=C/C(=O)O [KETOTIFEN FUMARATE]
Compound metabolized | CC[C@H](C)C(=O)O[C@H]1CCC=C2C=C[C@H](C)[C@H](CC[C@@H]3C[C@@H](O)CC(=O)O3)[C@H]21 [MEVASTATIN]

details: human gut metagenome, 24 h, 2 µM; remark: another data set of the same source

Bacterial Biotransformation | Structure (SMILES)
Compound NOT metabolized | CN1CCC(=C2c3ccccc3CC(=O)c3sccc32)CC1.O=C(O)/C=C/C(=O)O [KETOTIFEN FUMARATE]
Compound metabolized | CC[C@H](C)C(=O)O[C@H]1CCC=C2C=C[C@H](C)[C@H](CC[C@@H]3C[C@@H](O)CC(=O)O3)[C@H]21 [MEVASTATIN]

experiment: as §1, with “Z-022” for “Z-028”, “ERS12561821” for “ERS12561827”; details: 2 µM

Bacterial Biotransformation | Structure (SMILES)
Compound NOT metabolized | CN1CCC(=C2c3ccccc3CC(=O)c3sccc32)CC1.O=C(O)/C=C/C(=O)O [KETOTIFEN FUMARATE]
Compound metabolized | CC[C@H](C)C(=O)O[C@H]1CCC=C2C=C[C@H](C)[C@H](CC[C@@H]3C[C@@H](O)CC(=O)O3)[C@H]21 [MEVASTATIN]

details: human gut metagenome, 24 h, 2 µM; remark: another data set of the same source

Bacterial Biotransformation | Structure (SMILES)
Compound NOT metabolized | CN1CCC(=C2c3ccccc3CC(=O)c3sccc32)CC1.O=C(O)/C=C/C(=O)O [KETOTIFEN FUMARATE]
Compound NOT metabolized | CC[C@H](C)C(=O)O[C@H]1CCC=C2C=C[C@H](C)[C@H](CC[C@@H]3C[C@@H](O)CC(=O)O3)[C@H]21 [MEVASTATIN]

details: human gut metagenome, 24 h, 2 µM; remark: another data set of the same source

Bacterial Biotransformation | Structure (SMILES)
Compound metabolized | CN1CCC(=C2c3ccccc3CC(=O)c3sccc32)CC1.O=C(O)/C=C/C(=O)O [KETOTIFEN FUMARATE]
Compound metabolized | CC[C@H](C)C(=O)O[C@H]1CCC=C2C=C[C@H](C)[C@H](CC[C@@H]3C[C@@H](O)CC(=O)O3)[C@H]21 [MEVASTATIN]

experiment: as §1, with “Z-020” for “Z-028”, “rabbit” for “mouse”, “ERS12561819” for “ERS12561827”; details: 2 µM

Bacterial Biotransformation | Structure (SMILES)
Compound NOT metabolized | CN1CCC(=C2c3ccccc3CC(=O)c3sccc32)CC1.O=C(O)/C=C/C(=O)O [KETOTIFEN FUMARATE]
Compound NOT metabolized | CC[C@H](C)C(=O)O[C@H]1CCC=C2C=C[C@H](C)[C@H](CC[C@@H]3C[C@@H](O)CC(=O)O3)[C@H]21 [MEVASTATIN]

experiment: as §1, with “WLS-240” for “Z-028”, “human” for “mouse”, “ERS12561773” for “ERS12561827”; details: 2 µM

Bacterial Biotransformation | Structure (SMILES)
Compound metabolized | CN1CCC(=C2c3ccccc3CC(=O)c3sccc32)CC1.O=C(O)/C=C/C(=O)O [KETOTIFEN FUMARATE]
Compound metabolized | CC[C@H](C)C(=O)O[C@H]1CCC=C2C=C[C@H](C)[C@H](CC[C@@H]3C[C@@H](O)CC(=O)O3)[C@H]21 [MEVASTATIN]

details: human gut metagenome, 24 h, 2 µM; remark: another data set of the same source

Bacterial Biotransformation | Structure (SMILES)
Compound metabolized | CN1CCC(=C2c3ccccc3CC(=O)c3sccc32)CC1.O=C(O)/C=C/C(=O)O [KETOTIFEN FUMARATE]
Compound metabolized | CC[C@H](C)C(=O)O[C@H]1CCC=C2C=C[C@H](C)[C@H](CC[C@@H]3C[C@@H](O)CC(=O)O3)[C@H]21 [MEVASTATIN]

details: human gut metagenome, 24 h, 2 µM; remark: another data set of the same source

Bacterial Biotransformation | Structure (SMILES)
Compound metabolized | CN1CCC(=C2c3ccccc3CC(=O)c3sccc32)CC1.O=C(O)/C=C/C(=O)O [KETOTIFEN FUMARATE]
Compound NOT metabolized | CC[C@H](C)C(=O)O[C@H]1CCC=C2C=C[C@H](C)[C@H](CC[C@@H]3C[C@@H](O)CC(=O)O3)[C@H]21 [MEVASTATIN]

experiment: as §1, with “WLS-220” for “Z-028”, “human” for “mouse”, “ERS12561769” for “ERS12561827”; details: 2 µM

Bacterial Biotransformation | Structure (SMILES)
Compound metabolized | CN1CCC(=C2c3ccccc3CC(=O)c3sccc32)CC1.O=C(O)/C=C/C(=O)O [KETOTIFEN FUMARATE]
Compound metabolized | CC[C@H](C)C(=O)O[C@H]1CCC=C2C=C[C@H](C)[C@H](CC[C@@H]3C[C@@H](O)CC(=O)O3)[C@H]21 [MEVASTATIN]

details: human gut metagenome, 24 h, 2 µM; remark: another data set of the same source

Bacterial Biotransformation | Structure (SMILES)
Compound NOT metabolized | CN1CCC(=C2c3ccccc3CC(=O)c3sccc32)CC1.O=C(O)/C=C/C(=O)O [KETOTIFEN FUMARATE]
Compound metabolized | CC[C@H](C)C(=O)O[C@H]1CCC=C2C=C[C@H](C)[C@H](CC[C@@H]3C[C@@H](O)CC(=O)O3)[C@H]21 [MEVASTATIN]

experiment: as §1, with “Z-029” for “Z-028”, “rat” for “mouse”, “ERS12561828” for “ERS12561827”; details: 2 µM

Bacterial Biotransformation | Structure (SMILES)
Compound NOT metabolized | CN1CCC(=C2c3ccccc3CC(=O)c3sccc32)CC1.O=C(O)/C=C/C(=O)O [KETOTIFEN FUMARATE]
Compound NOT metabolized | CC[C@H](C)C(=O)O[C@H]1CCC=C2C=C[C@H](C)[C@H](CC[C@@H]3C[C@@H](O)CC(=O)O3)[C@H]21 [MEVASTATIN]

experiment: as §1, with “WLS-170” for “Z-028”, “human” for “mouse”, “ERS12561762” for “ERS12561827”; details: 2 µM

Bacterial Biotransformation | Structure (SMILES)
Compound metabolized | CN1CCC(=C2c3ccccc3CC(=O)c3sccc32)CC1.O=C(O)/C=C/C(=O)O [KETOTIFEN FUMARATE]
Compound metabolized | CC[C@H](C)C(=O)O[C@H]1CCC=C2C=C[C@H](C)[C@H](CC[C@@H]3C[C@@H](O)CC(=O)O3)[C@H]21 [MEVASTATIN]

details: human gut metagenome, 24 h, 2 µM; remark: another data set of the same source

Bacterial Biotransformation | Structure (SMILES)
Compound NOT metabolized | CN1CCC(=C2c3ccccc3CC(=O)c3sccc32)CC1.O=C(O)/C=C/C(=O)O [KETOTIFEN FUMARATE]
Compound NOT metabolized | CC[C@H](C)C(=O)O[C@H]1CCC=C2C=C[C@H](C)[C@H](CC[C@@H]3C[C@@H](O)CC(=O)O3)[C@H]21 [MEVASTATIN]

experiment: as §1, with “Z-007” for “Z-028”, “rat” for “mouse”, “ERS12561807” for “ERS12561827”; details: 2 µM

Bacterial Biotransformation | Structure (SMILES)
Compound NOT metabolized | CN1CCC(=C2c3ccccc3CC(=O)c3sccc32)CC1.O=C(O)/C=C/C(=O)O [KETOTIFEN FUMARATE]
Compound NOT metabolized | CC[C@H](C)C(=O)O[C@H]1CCC=C2C=C[C@H](C)[C@H](CC[C@@H]3C[C@@H](O)CC(=O)O3)[C@H]21 [MEVASTATIN]

experiment: as §1, with “WLS-077” for “Z-028”, “human” for “mouse”, “ERS12561750” for “ERS12561827”; details: 2 µM

Bacterial Biotransformation | Structure (SMILES)
Compound NOT metabolized | CN1CCC(=C2c3ccccc3CC(=O)c3sccc32)CC1.O=C(O)/C=C/C(=O)O [KETOTIFEN FUMARATE]
Compound NOT metabolized | CC[C@H](C)C(=O)O[C@H]1CCC=C2C=C[C@H](C)[C@H](CC[C@@H]3C[C@@H](O)CC(=O)O3)[C@H]21 [MEVASTATIN]
